# Measurements published in patent US20250206722A1, “SMALL MOLECULE INHIBITORS OF TEA DOMAIN FAMILY MEMBERS” (The Scripps Research Institute, priority 2022, published 2025).
# pIC50: −log10 of the molar value.
# Key:
# NCI-H226 cells = assay: NCI-H226 proliferation assay (in house); type: cell-based; settings: Homo sapiens, 120 h, 5 days, Cell TiterGlo, 20-point 1:2 dilution from 20 μM
# Procedure: NCI-H226 Proliferation Assay
# NCI-H226 cells were obtained from American Type Culture Collection (ATCC, CRL-5826) and cultured in RPMI 1640 with L-glutamine (Corning, 10-040-CV) supplemented with 10% fetal bovine serum (Gibco, 10438-026) and 1% penicillin-streptomycin (Gibco, 15070063). Cells were trypsinized, resuspended in growth medium, and diluted to a concentrated of 10,000 cells/mL. 500 cells, 50 μL of cell suspension, per well were then plated in a white 384-well plate (Corning) and incubated at 37° C., 5% CO2. After 24 hours incubation, 100 nL of test compounds in DMSO, 20-point 1:2 dilution starting from 20 μM (final concentration) in triplicate, were transferred to each well using an Agilent Bravo instrument outfitted with a pintool head. Cells were incubated at 37° C., 5% CO2 for 5 days followed by the addition of 30 μL of Cell TiterGlo (Promega; diluted 1:6 in water) to each well and luminescence values recorded using an EnVision plate reader. […]
# [1] = system: transcriptional activity of TEADs; assay: TEAD reporter assay (MCF7 TEAD-LUC reporter cells); type: cell-based; settings: Homo sapiens, 24 hours, BrightGlo luminescence
# Procedure: MCF7 TEAD-LUC reporter cells were obtained from BPS Bioscience, Inc. and cultured in DMEM medium (Corning, 10-013-CV) supplemented with 10% fetal bovine serum (Gibco, 10438-026), 1% penicillin-streptomycin (Gibco, 15070063), 1% non-essential amino acids (Gibco, 15070063), and 10 μg/mL insulin (Sigma, 10516). Cells were trypsinized, resuspended in growth medium, and diluted to a concentrated of 100,000 cells/mL. 5,000 cells, 50 μL of cell suspension, per well were then plated in a white 384-well plate (Corning) and incubated at 37° C., 5% CO2. After 24 hours incubation, 100 nL of test compounds in DMSO, 20-point 1:2 dilution starting from 20 μM (final concentration) in triplicate, were transferred to each well using an Agilent Bravo instrument outfitted with a pintool head. Cells were incubated at 37° C., 5% CO2 for 24 hours followed by the addition of 30 μL of BrightGlo (Promega; diluted 1:3 in water) to each well and luminescence values recorded using an EnVision plate reader.
# The in vitro assay results of the compounds in the present invention were included in Table 1. The compounds described herein, inhibited the transcriptional activity of TEADs, as assessed by decreased luminance from a TEAD reporter cell line (MCF7 TEAD-LUC) in response to compound treatment.
Structure (SMILES),IC50 (NCI-H226 cells),pIC50 [1]
"C=CC(=O)N1CCN(c2nccnc2Nc2ccc(C(F)F)nc2)CC1 [Example 47, 1-(4-(3-((6-(difluoromethyl)pyridin-3-yl)amino)pyrazin-2-yl)piperazin-1-yl)prop-2-en-1-one]",0.043 µM,8.40
"C=C(F)C(=O)N1CCN(c2nccnc2Nc2cnc(C(F)(F)F)c(F)c2)CC1 [Example 51, 2-fluoro-1-(4-(3-((5-fluoro-6-(trifluoromethyl)pyridin-3-yl)amino)pyrazin-2-yl)piperazin-1-yl)prop-2-en-1-one]",0.331 µM,8.17
"C=C(F)C(=O)N1CC(Nc2nccnc2Nc2ccc(OC(F)(F)F)nc2)C1 [Example 64, 2-fluoro-1-(3-((3-((6-(trifluoromethoxy)pyridin-3-yl)amino)pyrazin-2-yl)amino)azetidin-1-yl)prop-2-en-1-one]",3.12 µM,5.77
"C=C(F)C(=O)N1CCN(c2nccnc2NC2C3CC2C3C(F)(F)F)CC1 (stereo not shown) [Example 68, 2-fluoro-1-(4-(3-((4-(trifluoromethyl)bicyclo[1.1.1]pentan-2-yl)amino)pyrazin-2-yl)piperazin-1-yl)prop-2-en-1-one]",0.708 µM,7.96
"C=CC(=O)N1CCN(c2nccnc2Oc2ccc(OC)cc2)CC1 [Example 70, 1-(4-(3-(4-methoxyphenoxy)pyrazin-2-yl)piperazin-1-yl)prop-2-en-1-one]",0.028 µM,8.52
"C=CC(=O)N1CCN(c2nccnc2C(=O)c2ccc(C(F)(F)F)cc2)CC1 [Example 95, 1-(4-(3-(4-(trifluoromethyl)benzoyl)pyrazin-2-yl)piperazin-1-yl)prop-2-en-1-one]",0.012 µM,8.89
"C=CC(=O)N1CCN(c2nccnc2Cc2ccc(C(F)(F)F)cc2)CC1 [Example 98, 1-(4-(3-(4-(trifluoromethyl)benzyl)pyrazin-2-yl)piperazin-1-yl)prop-2-en-1-one]",0.012 µM,9.05
"C=CC(=O)N1CCN(c2nccnc2C(=O)NC2CCC2)CC1 [Example 99, 3-(4-acryloylpiperazin-1-yl)-N-cyclobutylpyrazine-2-carboxamide]",2.08 µM,6.85
"C=CC(=O)N1CCN(c2nccnc2C(=O)NC2CC(F)(F)C2)CC1 [Example 100, 3-(4-acryloylpiperazin-1-yl)-N-(3,3-difluorocyclobutyl)pyrazine-2-carboxamide]",1.18 µM,7.13
"C=CC(=O)N1CCN(c2nccnc2C(=O)N2CC3(CC(C(F)(F)F)C3)C2)CC1 [Example 101, 1-(4-(3-(6-(trifluoromethyl)-2-azaspiro[3.3]heptane-2-carbonyl)pyrazin-2-yl)piperazin-1-yl)prop-2-en-1-one]",3.76 µM,7.87
"C=CC(=O)N1CCN(c2nccnc2C(=O)NC2CCCC2)CC1 [Example 102, 3-(4-acryloylpiperazin-1-yl)-N-cyclopentylpyrazine-2-carboxamide]",1.6 µM,7.41
"C=CC(=O)N1CCN(c2nccnc2C(=O)N2CCC(C(F)(F)F)CC2)CC1 [Example 103, 1-(4-(3-(4-(trifluoromethyl)piperidine-1-carbonyl)pyrazin-2-yl)piperazin-1-yl)prop-2-en-1-one]",> 20 µM,6.78
"C=CC(=O)N1CCN(c2nccnc2C(=O)N2CCC(F)(F)CC2)CC1 [Example 104, 1-(4-(3-(4,4-difluoropiperidine-1-carbonyl)pyrazin-2-yl)piperazin-1-yl)prop-2-en-1-one]",2.74 µM,5.65

# Other lines, results leading:
IC50 (NCI-H226 cells),pIC50 [1],Structure (SMILES)
0.076 µM,8.44,"C=CC(=O)N1CCN(c2nccnc2Nc2ccc(C(F)(F)F)nc2)C[C@@H]1C [Example 53, (S)-1-(2-methyl-4-(3-((6-(trifluoromethyl)pyridin-3-yl)amino)pyrazin-2-yl)piperazin-1-yl)prop-2-en-1-one]"
0.192 µM,8.05,"C=CC(=O)N1CCN(c2nccnc2Nc2ccc(C(F)(F)F)nc2)C[C@H]1C [Example 54, (R)-1-(2-methyl-4-(3-((6-(trifluoromethyl)pyridin-3-yl)amino)pyrazin-2-yl)piperazin-1-yl)prop-2-en-1-one]"
0.145 µM,7.78,"C=C(F)C(=O)N1CC=C(c2nccnc2Nc2ccc(C(F)(F)F)nc2)CC1 [Example 56, 2-fluoro-1-(4-(3-((6-(trifluoromethyl)pyridin-3-yl)amino)pyrazin-2-yl)-3,6-dihydropyridin-1(2H)-yl)prop-2-en-1-one]"
0.257 µM,8.30,"C=CC(=O)N1CCC(c2nccnc2Nc2ccc(C(F)(F)F)nc2)CC1 [Example 61, 1-(4-(3-((6-(trifluoromethyl)pyridin-3-yl)amino)pyrazin-2-yl)piperidin-1-yl)prop-2-en-1-one]"
8.67 µM,7.97,"C=CC(=O)N1CC(Nc2nccnc2Nc2ccc(C(F)(F)F)nc2)C1 [Example 62, 1-(3-((3-((6-(trifluoromethyl)pyridin-3-yl)amino)pyrazin-2-yl)amino)azetidin-1-yl)prop-2-en-1-one]"
1.85 µM,7.73,"C=C(F)C(=O)N1CC(Oc2nccnc2Nc2ccc(C(F)(F)F)nc2)C1 [Example 65, 2-fluoro-1-(3-((3-((6-(trifluoromethyl)pyridin-3-yl)amino)pyrazin-2-yl)oxy)azetidin-1-yl)prop-2-en-1-one]"
0.112 µM,8.57,"C=CC(=O)N1CCC(c2nccnc2Oc2ccc(C(F)(F)F)cn2)CC1 [Example 75, 1-(4-(3-((5-(trifluoromethyl)pyridin-2-yl)oxy)pyrazin-2-yl)piperidin-1-yl)prop-2-en-1-one]"
0.008 µM,8.74,"C=CC(=O)N1CCN(c2nccnc2Oc2ccc(C(F)(F)F)nc2)CC1 [Example 77, 1-(4-(3-((6-(trifluoromethyl)pyridin-3-yl)oxy)pyrazin-2-yl)piperazin-1-yl)prop-2-en-1-one]"
2.97 µM,8.02,"C=C(C(=O)N1CCC(c2nccnc2Oc2ccc(C(F)(F)F)nc2)CC1)C(F)(F)F [Example 81, 2-(trifluoromethyl)-1-(4-(3-((6-(trifluoromethyl)pyridin-3-yl)oxy)pyrazin-2-yl)piperidin-1-yl)prop-2-en-1-one]"
> 20 µM,< 4.70,"C=C(CN1CCC(c2nccnc2Oc2ccc(C(F)(F)F)nc2)CC1)C(=O)O [Example 82, 2-((4-(3-((6-(trifluoromethyl)pyridin-3-yl)oxy)pyrazin-2-yl)piperidin-1-yl)methyl)acrylic acid]"
0.0173 µM,8.85,"C=CC(=O)N1CC=C(c2nccnc2Oc2ccc(C(F)(F)F)nc2)CC1 [Example 84, 1-(4-(3-((6-(trifluoromethyl)pyridin-3-yl)oxy)pyrazin-2-yl)-3,6-dihydropyridin-1(2H)-yl)prop-2-en-1-one]"
3.01 µM,4.51,"C=C(CN1CC(c2nccnc2Oc2ccc(C(F)(F)F)nc2)C1)C(=O)O [Example 86, 2-((3-(3-((6-(trifluoromethyl)pyridin-3-yl)oxy)pyrazin-2-yl)azetidin-1-yl)methyl)acrylic acid]"
0.019 µM,8.52,"C=CC(=O)N1CCN(c2nccnc2C(O)c2ccc(C(F)(F)F)cc2)CC1 (stereo not shown) [Example 97, 1-(4-(3-(hydroxy(4-(trifluoromethyl)phenyl)methyl)pyrazin-2-yl)piperazin-1-yl)prop-2-en-1-one]"
